Results taken from US5578445A, “In vitro method of evaluating the effects of a substance” (priority 1991, dated 1996).

What was measured:
[1] = molecular target: T1, estrogen receptor (Homo sapiens, UniProt P03372); assay: Cathepsin D secretion into medium, MCF7 in petridishes, Cath D RIA
T1 sequence (P03372 1-595): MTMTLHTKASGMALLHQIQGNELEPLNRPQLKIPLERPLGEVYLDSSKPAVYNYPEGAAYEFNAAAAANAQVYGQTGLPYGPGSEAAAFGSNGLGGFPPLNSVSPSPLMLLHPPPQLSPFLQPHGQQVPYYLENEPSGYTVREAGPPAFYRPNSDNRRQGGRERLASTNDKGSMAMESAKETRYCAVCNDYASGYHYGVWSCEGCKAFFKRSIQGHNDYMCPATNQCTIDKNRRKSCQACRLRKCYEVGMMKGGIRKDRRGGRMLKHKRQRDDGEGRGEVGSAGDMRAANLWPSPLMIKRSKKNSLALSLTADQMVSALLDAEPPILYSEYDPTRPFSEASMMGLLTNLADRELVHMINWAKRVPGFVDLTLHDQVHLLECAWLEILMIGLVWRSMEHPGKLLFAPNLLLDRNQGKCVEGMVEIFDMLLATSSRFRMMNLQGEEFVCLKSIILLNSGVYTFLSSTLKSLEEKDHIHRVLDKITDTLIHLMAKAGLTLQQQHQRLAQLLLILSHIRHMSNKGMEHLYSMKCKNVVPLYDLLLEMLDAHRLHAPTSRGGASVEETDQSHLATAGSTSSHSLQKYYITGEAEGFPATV
Method: The experiment was conducted using the human breast cancer cell line MCF7 (ATCC HTB 22). The selected cellular response to be analyzed was the amount of expressed cathepsin D (Cath D), the expression of which is regulated by the estrogen receptor. […] The amount of Cath D secreted into the medium was determined with the aid of a commercial RIA (ELSA-CATH-D from CIS Bioindustries, Gif-sur-Yvette, France). The performance of the method is as follows:
A sample of the cell line MCF7 (4×10^5 cells) was distributed into plastic petridishes (suitable for the culturing of mammalian cells). The cells were suspended in the first medium (C).
The petridishes were incubated at 37° C. and 5% CO2 in a temperature and humidity controlled chamber.
The first medium (C) was replaced by the second medium, which consisted of fresh first medium (C). The following hormone additions were made:
The petridishes were incubated in the temperature and humidity controlled chamber under the same conditions as above.
72 hours after the hormone addition visual inspection of the number of cells and their morphology was performed. Medium from each petridish was transferred to Eppendorf tubes and centrifuged 7 minutes at 1000rpm (Eppendorf centrifuge). The amount of Cath D in the medium samples was analyzed with the aid of the commercial Cath D RIA (ELSA-CATH D)

[2] = molecular target: T1, estrogen receptor; assay: pS2 secretion, additional set of experiments, ZR 75-1 in 96-well trays, pS2 RIA; conditions: for relative amount of pS2 (no hormone added = 1): zr 75-1 cells, 48 h
Method: (§1) The amount of pS2 secreted into the medium was determined with the aid of a commercial RIA (ELSA pS2 from CIS Bioindustries, Gif-sur-Yvette, France).
(§2) Samples of the cells ZR 75-1 and MCF7, respectively, were distributed into plastic petridishes (suitable for the culturing of mammalian cells).
(§3) Samples of the cells ZR 75-1 ([…]) and MCF7 (2.5×10^4 cells/well), respectively, were distributed in 96-well trays. The cells were distributed in the same medium as used on day 1.
(§4) The wells were washed with 100 μl Coon's medium/well. The first medium was replaced by the second medium (B) without 1% FCS. The following hormone additions were made:
(§5) 48 hours after the hormone addition the number of cells and their morphology were investigated. Medium from each well was transferred to Eppendorf tubes. The possible amount of pS2 in the medium samples was analyzed with the aid of a commercial pS2 RIA (ELSA pS2 ).

[3] = tested on: MCF7; assay: Proliferation, amount of ATP after 6 days, MCF7
[4] = tested on: ZR 75-1; assay: Proliferation, amount of ATP after 6 days, ZR 75-1; type: cell-based, human
Method: The growth is determined by measuring the amount of ATP in the cells after incubation with ligands for 6 days. […]
Samples of the cells ZR 75-1 (8000 cells/well) and MCF7 (4000 cells/well), respectively, were distributed into microtiter plates having 96 wells.
The following hormone additions were made:
The medium was replaced by fresh medium of the same composition as on day 6, and hormone additions as on day 6.
6 days after hormone addition the number of cells and their morphology were investigated. Medium from each well was poured off. To each well was added 100 μl 1% TCA (trichloro acetic acid).

[5] = molecular target: T1, estrogen receptor; assay: pS2 secretion, additional set of experiments, MCF7 in 96-well trays, pS2 RIA; conditions: for relative amount of pS2 (no hormone added = 1): mcf7 cells, 48 h
Method: as §1, §2, §3, §4, §5

[6] = ZR-75-1, 48 h, read-out: relative amount of pS2 (no hormone added = 1)
[7] = MCF7, 48 h, read-out: relative amount of pS2 (no hormone added = 1)

## O=C(c1ccc(OCCN2CCCC2)cc1)c1c(-c2ccc(O)cc2)sc2cc(O)ccc12 [LY 117018]
[1]; MCF7, 72 h, read-out: relative amount of Cath D (no hormone added = 1)
  fold induction at 0.1 µM: 0.88
[1]; MCF7, 10^-7 M LY 117018, both in the absence and in the presence of 10^-8 M E2
  function on Cath D expression: acts as an estrogen antagonist
[2]; ZR 75-1, 10 nM LY 117018 and 0.1 nM E2
  inhibition of the expression of pS2: inhibited down to the same level as in the absence of added hormone
[2]; ZR 75-1, 10^-8 M LY 117018, presence of 10^-10 M E2
  function on pS2 expression: functions as an antagonist
[2]; ZR 75-1, presence of 0.1 nM E2
  antagonist strength compared with Tamoxifen, pS2: stronger antagonist than Tamoxifen
[2]; ZR 75-1, substance alone, without E2
  influence on the pS2 secretion: do not have an influence
[2]; [6]
  fold induction at 0.001 µM: 0.9
  fold induction at 0.01 µM: 0.86
  fold induction at 0.1 µM: 0.78
  fold induction at 1 µM: 0.75
[2]; 0.001 µM
  relative amount of pS2 (no hormone added = 1): 1.96
[2]; 0.01 µM
  relative amount of pS2 (no hormone added = 1): 0.84
[2]; 0.1 µM
  relative amount of pS2 (no hormone added = 1): 0.91
[2]; 1 µM
  relative amount of pS2 (no hormone added = 1): 0.83
[3]; Homo sapiens, MCF7, 144 h, read-out: relative amount of ATP (no hormone added = 1), MCF7, + 10^-6 M LY 117018, -E2, 6 days
  activity at 1 µM: 27%
[3]; Homo sapiens, MCF7, 144 h, read-out: relative amount of ATP (no hormone added = 1), MCF7, + 10^-7 M LY 117018, -E2, 6 days
  activity at 0.1 µM: 89%
[3]; Homo sapiens, MCF7, 144 h, read-out: relative amount of ATP (no hormone added = 1), MCF7, + 10^-8 M LY 117018, -E2, 6 days
  activity at 0.01 µM: 89%
[3]; Homo sapiens, MCF7, 144 h, read-out: relative amount of ATP (no hormone added = 1), MCF7, + 10^-9 M LY 117018, -E2, 6 days
  activity at 0.001 µM: 85%
[3]; MCF7, 0.1 nM E2 and 10 nM LY 117018
  inhibition of growth: inhibited down to the same level as in the absence of added hormone
[3]; MCF7, 10^-7 M LY 117018, presence of 10^-10 M E2
  function on growth: functions as an antagonist
[3]; MCF7, presence of 0.1 nM E2
  antagonist strength compared with Tamoxifen, growth: stronger antagonist than Tamoxifen
[4]; 0.1 nM E2 and 10 nM LY 117018
  inhibition of growth: inhibited down to the same level as in the absence of added hormone
[4]; 10^-7 M LY 117018, presence of 10^-10 M E2
  function on growth: functions as an antagonist
[4]; Homo sapiens, ZR-75-1, 144 h, + 10^-6 M LY 117018, -E2, 6 days, read-out: relative amount of ATP (no hormone added = 1)
  activity at 1 µM: 69%
[4]; Homo sapiens, ZR-75-1, 144 h, + 10^-7 M LY 117018, -E2, 6 days, read-out: relative amount of ATP (no hormone added = 1)
  activity at 0.1 µM: 99%
[4]; Homo sapiens, ZR-75-1, 144 h, + 10^-8 M LY 117018, -E2, 6 days, read-out: relative amount of ATP (no hormone added = 1)
  activity at 0.01 µM: 89%
[4]; Homo sapiens, ZR-75-1, 144 h, + 10^-9 M LY 117018, -E2, 6 days, read-out: relative amount of ATP (no hormone added = 1)
  activity at 0.001 µM: 103%
[4]; presence of 0.1 nM E2
  antagonist strength compared with Tamoxifen, growth: stronger antagonist than Tamoxifen
[5]; [7]
  fold induction at 0.001 µM: 0.89
  fold induction at 0.01 µM: 1
  fold induction at 0.1 µM: 0.93
  fold induction at 1 µM: 1
[5]; MCF7, 10 nM LY 117018 and 0.1 nM E2
  inhibition of the expression of pS2: inhibited down to the same level as in the absence of added hormone
[5]; MCF7, 10^-8 M LY 117018, presence of 10^-10 M E2
  function on pS2 expression: functions as an antagonist
[5]; MCF7, presence of 0.1 nM E2
  antagonist strength compared with Tamoxifen, pS2: stronger antagonist than Tamoxifen
[5]; MCF7, substance alone, without E2
  influence on the pS2 secretion: do not have an influence
[5]; 0.001 µM
  relative amount of pS2 (no hormone added = 1): 2.01
[5]; 0.01 µM
  relative amount of pS2 (no hormone added = 1): 1.11
[5]; 0.1 µM
  relative amount of pS2 (no hormone added = 1): 1.19
[5]; 1 µM
  relative amount of pS2 (no hormone added = 1): 1.18
